Target: Genome polyprotein (Hepatitis C virus genotype 1b (strain HC-J4) (HCV), UniProt O92972)
Assay: Inhibition Assay: Inhibition assay using HCV NS5B.

Sequence of Genome polyprotein (O92972 2420-3010 limits assumed): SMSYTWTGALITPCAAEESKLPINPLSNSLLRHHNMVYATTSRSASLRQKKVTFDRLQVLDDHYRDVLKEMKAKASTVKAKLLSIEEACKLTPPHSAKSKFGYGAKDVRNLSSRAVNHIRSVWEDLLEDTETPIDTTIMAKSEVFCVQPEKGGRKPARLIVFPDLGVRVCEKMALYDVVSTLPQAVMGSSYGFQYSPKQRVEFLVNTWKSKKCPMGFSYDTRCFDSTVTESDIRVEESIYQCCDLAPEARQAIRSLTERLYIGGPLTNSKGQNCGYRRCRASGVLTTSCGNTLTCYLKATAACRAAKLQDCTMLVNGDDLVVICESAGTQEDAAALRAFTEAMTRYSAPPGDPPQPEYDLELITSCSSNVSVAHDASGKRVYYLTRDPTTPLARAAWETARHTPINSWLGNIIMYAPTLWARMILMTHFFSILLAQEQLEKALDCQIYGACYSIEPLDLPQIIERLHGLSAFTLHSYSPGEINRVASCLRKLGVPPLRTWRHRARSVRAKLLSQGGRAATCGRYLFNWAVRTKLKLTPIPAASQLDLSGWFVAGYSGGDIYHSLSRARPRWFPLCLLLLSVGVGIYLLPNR

CN1C/C=C\CCNC(=O)Cn2c(-c3ccc(Cl)cc3)c(C3CCCCC3)c3ccc(cc32)C(=O)NS1(=O)=O gave an IC50 of 0.17 µM.

Source: ChEMBL document CHEMBL3639203, “Macrocyclic indoles as hepatitis C virus inhibitors” (2013)
